Measurements as given in patent US12178917B2, “Beta-lactamase formulations and uses thereof” (Theriva Biologics, Inc., priority 2014, dated 2024).

Assays:
intestinal microbiome [1] = assay: Whole genome shotgun sequencing and comparative metagenomics of pig fecal samples; assay type: in vivo, gnotobiotic pigs populated with human adult fecal microflora; details: for number of bacterial taxa, Genus / number of bacterial taxa, Species / number of bacterial taxa, Strain/sub-species: per treatment group, pig fecal samples
Method: In order to study the ability of P3A to protect the intestinal microbiome from antibiotics-induced (e.g., ceftriaxone (CRO)-induced) damage, pig fecal samples obtained from the study described above were subjected to additional genomic analysis. Specifically, the 16S rRNA gene V1V2 region was sequenced. In addition, fecal DNA was subjected to whole genome shotgun sequencing. Shotgun sequencing was performed using Illumina HiSeq RAPID RUN, targeting 100 bp single read with the aim to achieve approximately 10-20 million reads per sample (Table 6),
These sequence data were classified taxonomically to identify microbial communities associated with the pig fecal samples. Taxonomic classification was performed using bioInformatics algorithms and curated genome databases. Briefly, raw, unassembled shotgun sequence reads were probed against curated GeneBook bacterial and viral databases using GENIUS software package for rapid identification of bacteria communities as well as their relative abundance (Hasan of al., 2014, PLoS ONE 9:e97699; Lax et al., 2014, Science 345:1048). The analyses identified 139 bacterial strains, 79 species, and 35 genera among the treatment groups (Table 7).
Comparative metagenomics analyses were performed by creating heatmaps based on the relative abundance of each bacterial strain in each sample (see FIGS. 11A and 11B) and at the bacterial genus level (see FIG. 12) using the NMF R software package (Gaujoux and Seoighe, 2010, BMC Bioinformatics, 11:367). The samples were clustered using the maximum distance function and the Ward Hierarchical Clustering algorithm. The distance function was used to measure the difference in composition between each of the samples. The clustering algorithm used the distances between each of the samples to create a dendrogram that clustered samples with similar compositions, including both the presence and absence of organisms, in the same clades.
Comparative metagenomics analyses were also performed to investigate changes in the microbiome across different treatment groups. For these analyses, the centroid classification method from the PamR package (Tibshirani of al., 2002, PNAS 99:6567), was used to compare the average frequency (absolute abundance) of each bacterial strain in the samples. The deviation of the centroid of each bacterial strain from each study group was graphed by the overall centroid of all the study groups (FIGS. 13A and 13B).
As the number of sequence reads generated from each individual sample was variable, subsamples from each sample were chosen to represent a subset of 10 million reads. This was done to avoid any bias due to different sample sizes and to enable the measurement of the absolute abundance of the bacterial organisms in the samples. Using these subsets to reduce bias, the comparative metagenomics analyses were performed as described previously for FIGS. 13A and 13B by graphing the deviation of the centroid of each bacterial strain from each study group by the overall centroid of all the study groups (FIGS. 14A and 14B).

[2] = test system: ampicillin-resistant aerobes including those of the phylum Proteobacteria; assay: Plating of Day 21 feces on LB+amp plates; assay type: in vivo, gnotobiotic pigs populated with human adult fecal microflora; details: aerobic conditions, 37° C.
Method: Equal quantities of diluted feces collected from animals at necropsy were plated on LB+amp plates and grown under aerobic conditions at 37° C., The colonies were counted while taking into account the dilution factor.
The gastrointestinal (GI) tract of 5 day old gnotobiotic pigs was populated with human adult fecal microflora. Two days later, animals received antibiotics (clindamycin or CRO, IP, 50 mg/kg) for 4 days. P3A was delivered orally 4 times a day (75 mg/dose) for 7 days beginning the day before CRO administration. Specifically, the P3A delayed-release capsules as described in Examples 1 and 2 were administered to the animals. C. difficile (2.6×10^6 cfu) was delivered orally to all animals on Day 13. Feces were collected on Days 11, 12, 14, 18, 20 directly from the rectum using sterile cotton swabs and at necropsy on Day 21 directly from the intestinal tract. […] The levels of a specific bacterial population expected to be sensitive to CRO, but not to clindamycin, ampicillin-resistant aerobes including those of the phylum Proteobacteria, were assessed by plating equal amounts of Day 21 feces on LB+amp plates. Fecal C. difficile Toxin A and interleukin-8 (ILS) were assessed via ELISA as a measure of C. difficile infection (CDI). Intestinal tracts collected at necropsy on Day 21 were evaluated histologically for signs of CDI.

in vivo = assay: in vivo; parameters: species or system Yorkshire piglets; details: Yorkshire, pig; for CRO serum levels: iv, 50 mg/kg
Method: A total of 10 pigs were treated once a day with IV ceftriaxone (CRO; 50 mg/kg) for a total of 7 days. A cohort of 5 pigs also received oral P3A (75 mg, four times a day), starting the day before CRO treatment and extending one day after CRO was stopped, for a total of 9 days. On Day 2 of CRO treatment, serum was collected 1, 6, and 19 hours after CRO administration. Serum was assayed for CRO levels using a validated high-performance liquid chromatography assay. […] The CRO levels in the serum collected at 19 hours was below the limit of detection of the assay (0.5 ug/mL). For both sets of histograms (1 hour and 6 hours), the left bar is ceftriaxone alone and the right bar is ceftriaxone and P3A.
Another pig study was performed to determine if oral administration of P3A (i.e. SYN-004) had any effect on the systemic levels of antibiotics. For this study, ten Yorkshire piglets, approximately 2 months old and weighing approximately 20 kg were treated with intravenous ceftriaxone (CRO) at 50 mg/kg once a day for seven days. Five animals also received P3A capsules (1 capsule containing 75 mg of P3A, four times a day) beginning the day before CRO treatment and extending to one day after CRO treatment, for a total of nine days. Specifically, the P3A delayed-release capsules as described in Examples 1 and 2 were administered to the animals. On day 2, animals were anesthetized and approximately 9 mls of blood drawn from the vena cava at three timepoints, 1 hour, 6 hours, and 19 hours after CRO administration. Blood was immediately dispensed into a serum separator vacutainer tube. After coagulation, samples were centrifuged and the serum was transferred to a cryovial and stored at −80° C. until analysis. CRO in the serum samples was quantified using a validated high-performance liquid chromatography assay (Owens et al., 2001, Int. J. Antimicrobial Agents, 17:483). A standard curve for CRO was prepared in negative control (untreated) pig serum and contained 6 points ranging from 0.5 to 50 ug/mL. The assay was linear over a range of 0.5 to 50 ug/mL. […]

intestinal microbiome [3] = assay: P3A-mediated microbiome protection in humanized pigs, 16S rRNA sequencing of fecal DNA; assay type: in vivo, gnotobiotic pigs populated with human adult fecal microflora; details: feces collected on Day 14; antibiotics IP 50 mg/kg 4 days; P3A 75 mg/dose orally 4 times a day 7 days
[4] = species-level centroid classification vs Group 1 (Control)

concentration at 19 h (in vivo) [ng/mL] | CRO serum levels (in vivo; 1 h) [µg/mL] | CRO serum levels (in vivo; 6 h) [µg/mL] | SMILES | number of bacterial taxa, Genus (intestinal microbiome [1]) | number of bacterial taxa, Species (intestinal microbiome [1]) | number of bacterial taxa, Strain/sub-species (intestinal microbiome [1]) | abundance of Methanobrevibacter smithii (intestinal microbiome [1]; [4]) | abundance of Turicibacter spp (intestinal microbiome [1]; [4]) | bacteria levels on LB+amp plates [2] | phylum-level taxonomic classification of bacteria in fecal DNA (intestinal microbiome [3])
< 500 | 79.43 ± 12.08 | 5.83 ± 1.15 | CO/N=C(\C(=O)N[C@@H]1C(=O)N2C(C(=O)O)=C(CSc3nc(=O)c(=O)[nH]n3C)CS[C@H]12)c1csc(N)n1 [CRO, ceftriaxone] | 32 | 70 | 102 | overabundance | underrepresentation | at least two log lower levels | dysbiosis
 |  |  | CCC[C@@H]1C[C@@H](C(=O)N[C@@H]([C@H]2O[C@H](SC)[C@H](O)[C@@H](O)[C@H]2O)[C@H](C)Cl)N(C)C1 [clindamycin] | 7 | 12 | 17 |  |  |  | 
